Results reported in the NIST ThermoML archive (doi:10.1021/je800110r).
Numbers after ± are expanded uncertainties.

Conditions: 323.14 K, Liquid, Vibrating tube method

CCCCCCCCCC [decane]
Conditions	mass density [kg/m3]
6233 kPa	712.5 ± 2
6244 kPa	712.5 ± 2
6414 kPa	712.6 ± 2
6459 kPa	712.7 ± 2
6531 kPa	712.7 ± 2
6557 kPa	712.8 ± 2
6576 kPa	712.8 ± 2
6597 kPa	712.9 ± 2
6619 kPa	712.7 ± 2
6725 kPa	712.9 ± 2
6747 kPa	713 ± 2
6764 kPa	712.9 ± 2
6781 kPa	713.1 ± 2
6809 kPa	713 ± 2
6826 kPa	713 ± 2
6855 kPa	713 ± 2
6870 kPa	713 ± 2
6893 kPa	713.1 ± 2
7285 kPa	713.4 ± 2
7382 kPa	713.6 ± 2
7397 kPa	713.5 ± 2
7411 kPa	713.6 ± 2
7428 kPa	713.5 ± 2
7445 kPa	713.5 ± 2
7465 kPa	713.7 ± 2
7482 kPa	713.5 ± 2
7509 kPa	713.6 ± 2
7525 kPa	713.5 ± 2
7542 kPa	713.8 ± 2
7557 kPa	713.7 ± 2
7580 kPa	713.6 ± 2
7601 kPa	713.7 ± 2
7618 kPa	713.7 ± 2
7634 kPa	713.7 ± 2
7652 kPa	713.7 ± 2
7670 kPa	713.8 ± 2
7683 kPa	713.8 ± 2
7696 kPa	713.7 ± 2
7715 kPa	713.7 ± 2
7737 kPa	713.8 ± 2
7758 kPa	713.9 ± 2
7774 kPa	713.9 ± 2
7790 kPa	713.8 ± 2
7809 kPa	713.9 ± 2
7828 kPa	713.9 ± 2
7850 kPa	714 ± 2
7869 kPa	714 ± 2
7894 kPa	713.9 ± 2
7916 kPa	713.9 ± 2
7935 kPa	714.1 ± 2
7956 kPa	714 ± 2
7977 kPa	714.1 ± 2
7997 kPa	714.1 ± 2
8016 kPa	714 ± 2
8033 kPa	714.1 ± 2
8054 kPa	714.1 ± 2
8074 kPa	714.1 ± 2
8097 kPa	714.1 ± 2
8121 kPa	714.2 ± 2
8138 kPa	714.2 ± 2
8158 kPa	714.1 ± 2
8179 kPa	714.2 ± 2
8197 kPa	714.3 ± 2
8218 kPa	714.3 ± 2
8245 kPa	714.3 ± 2
8263 kPa	714.3 ± 2
8284 kPa	714.3 ± 2
8306 kPa	714.4 ± 2
8333 kPa	714.4 ± 2
8348 kPa	714.4 ± 2
8376 kPa	714.5 ± 2
8451 kPa	714.3 ± 2
8476 kPa	714.5 ± 2
8495 kPa	714.5 ± 2
8518 kPa	714.6 ± 2
8543 kPa	714.5 ± 2
8582 kPa	714.5 ± 2
8625 kPa	714.6 ± 2
8654 kPa	714.7 ± 2
8677 kPa	714.6 ± 2
8707 kPa	714.7 ± 2
8738 kPa	714.7 ± 2
8762 kPa	714.6 ± 2
8789 kPa	714.7 ± 2
8813 kPa	714.7 ± 2
8834 kPa	714.8 ± 2
8855 kPa	714.8 ± 2
8876 kPa	714.7 ± 2
8907 kPa	714.8 ± 2
8932 kPa	714.8 ± 2
8957 kPa	714.9 ± 2
8990 kPa	714.8 ± 2
9031 kPa	715 ± 2
9048 kPa	715 ± 2
9072 kPa	715.1 ± 2
9095 kPa	715 ± 2
9118 kPa	715.1 ± 2
9139 kPa	715 ± 2
9160 kPa	715.1 ± 2
9185 kPa	715.1 ± 2
9212 kPa	715 ± 2
9231 kPa	715 ± 2
9255 kPa	715.2 ± 2
9277 kPa	715.1 ± 2
9304 kPa	715.3 ± 2
9344 kPa	715.2 ± 2
9366 kPa	715.1 ± 2
9390 kPa	715.1 ± 2
9415 kPa	715.2 ± 2
9434 kPa	715.3 ± 2
9476 kPa	715.4 ± 2
9504 kPa	715.4 ± 2
9524 kPa	715.4 ± 2
9550 kPa	715.4 ± 2
9576 kPa	715.4 ± 2
9607 kPa	715.3 ± 2
9630 kPa	715.4 ± 2
9653 kPa	715.5 ± 2
9676 kPa	715.5 ± 2
9703 kPa	715.4 ± 2
9721 kPa	715.6 ± 2
9741 kPa	715.5 ± 2
9766 kPa	715.5 ± 2
9789 kPa	715.5 ± 2
9813 kPa	715.5 ± 2
9834 kPa	715.6 ± 2
9852 kPa	715.7 ± 2
9870 kPa	715.7 ± 2
9901 kPa	715.7 ± 2
9920 kPa	715.7 ± 2
9941 kPa	715.6 ± 2
9965 kPa	715.8 ± 2
9990 kPa	715.7 ± 2
10015 kPa	715.8 ± 2
10040 kPa	715.9 ± 2
10068 kPa	715.9 ± 2
10093 kPa	715.9 ± 2
10113 kPa	715.9 ± 2
10141 kPa	715.8 ± 2
10166 kPa	715.9 ± 2
10189 kPa	715.8 ± 2
10208 kPa	715.9 ± 2
10238 kPa	716 ± 2
10264 kPa	716 ± 2
10291 kPa	716 ± 2
10367 kPa	716.1 ± 2
10397 kPa	716.1 ± 2
10421 kPa	716.1 ± 2
10442 kPa	716.2 ± 2
10472 kPa	716.2 ± 2
10493 kPa	716.2 ± 2
10520 kPa	716.1 ± 2
10579 kPa	716.2 ± 2
10608 kPa	716.2 ± 2
10639 kPa	716.3 ± 2
10664 kPa	716.2 ± 2
10686 kPa	716.4 ± 2
10714 kPa	716.4 ± 2
10739 kPa	716.4 ± 2
10771 kPa	716.4 ± 2
10796 kPa	716.4 ± 2
10826 kPa	716.4 ± 2
10852 kPa	716.5 ± 2
10882 kPa	716.5 ± 2
10909 kPa	716.5 ± 2
10931 kPa	716.6 ± 2
10956 kPa	716.5 ± 2
10988 kPa	716.6 ± 2
11010 kPa	716.6 ± 2
11042 kPa	716.7 ± 2
11071 kPa	716.7 ± 2
11103 kPa	716.7 ± 2
11126 kPa	716.8 ± 2
11156 kPa	716.7 ± 2
11185 kPa	716.7 ± 2
11209 kPa	716.9 ± 2
11236 kPa	716.8 ± 2
11259 kPa	716.7 ± 2
11422 kPa	717 ± 2
11448 kPa	717 ± 2
11495 kPa	717 ± 2
11520 kPa	717 ± 2
11538 kPa	717.1 ± 2
11560 kPa	717 ± 2
11582 kPa	717 ± 2
11601 kPa	717.2 ± 2
11626 kPa	717 ± 2
11645 kPa	717.1 ± 2
11670 kPa	717.2 ± 2
11695 kPa	717 ± 2
11718 kPa	717.2 ± 2
11739 kPa	717.1 ± 2
11755 kPa	717.1 ± 2
11781 kPa	717.2 ± 2
11813 kPa	717.3 ± 2
11845 kPa	717.4 ± 2
11865 kPa	717.2 ± 2
11891 kPa	717.4 ± 2
11927 kPa	717.4 ± 2
11954 kPa	717.4 ± 2
11974 kPa	717.4 ± 2
12001 kPa	717.4 ± 2
12022 kPa	717.4 ± 2
12046 kPa	717.5 ± 2
12071 kPa	717.5 ± 2
12283 kPa	717.7 ± 2
12299 kPa	717.6 ± 2
12320 kPa	717.7 ± 2
12335 kPa	717.6 ± 2
12350 kPa	717.7 ± 2
12372 kPa	717.8 ± 2
12543 kPa	717.9 ± 2
12558 kPa	717.9 ± 2
12576 kPa	717.9 ± 2
12592 kPa	717.9 ± 2
12612 kPa	718 ± 2
12628 kPa	717.9 ± 2
12644 kPa	717.9 ± 2
12667 kPa	717.9 ± 2
12689 kPa	718 ± 2
12714 kPa	718.1 ± 2
12739 kPa	718.1 ± 2
12755 kPa	718 ± 2
12770 kPa	718 ± 2
12790 kPa	718.3 ± 2
12807 kPa	718.1 ± 2
12823 kPa	718.1 ± 2
12837 kPa	718 ± 2
12936 kPa	718.2 ± 2
12949 kPa	718.2 ± 2
13023 kPa	718.3 ± 2
13043 kPa	718.3 ± 2
13073 kPa	718.3 ± 2
13090 kPa	718.3 ± 2
13112 kPa	718.3 ± 2
13128 kPa	718.4 ± 2
13145 kPa	718.3 ± 2
13160 kPa	718.4 ± 2
13180 kPa	718.4 ± 2
13197 kPa	718.5 ± 2
13215 kPa	718.4 ± 2
13228 kPa	718.4 ± 2
13244 kPa	718.4 ± 2
13258 kPa	718.4 ± 2
13272 kPa	718.4 ± 2
13285 kPa	718.4 ± 2
13303 kPa	718.6 ± 2
13314 kPa	718.5 ± 2
13328 kPa	718.5 ± 2
13346 kPa	718.4 ± 2
13361 kPa	718.4 ± 2
13379 kPa	718.4 ± 2
13395 kPa	718.6 ± 2
13413 kPa	718.5 ± 2
13429 kPa	718.6 ± 2
13443 kPa	718.6 ± 2
13457 kPa	718.6 ± 2
13476 kPa	718.7 ± 2
13496 kPa	718.6 ± 2
13510 kPa	718.6 ± 2
13531 kPa	718.5 ± 2
13547 kPa	718.7 ± 2
13565 kPa	718.7 ± 2
13587 kPa	718.7 ± 2
13601 kPa	718.6 ± 2
13622 kPa	718.7 ± 2
13639 kPa	718.7 ± 2
13660 kPa	718.8 ± 2
13677 kPa	718.8 ± 2
13699 kPa	718.8 ± 2
13715 kPa	718.9 ± 2
13732 kPa	718.8 ± 2
13753 kPa	718.9 ± 2
13770 kPa	718.9 ± 2
